The text below walks through data of US5001258A, “Antibiotic, fumifungin, a microbial process for the preparation thereof, and the use thereof as a pharmaceutical” (Hoechst Aktiengesellschaft, priority 1987, dated 1991).

The MIC is the smallest concentration in the dilution series that meets the test's criterion for growth inhibition.

One data set concerns Aspergillus niger. As to the kind of experiment: MIC of fumifungin, growth inhibition of Aspergillus niger. In kind it is cell-based.
The nature of data set [1]: Solubility (physicochemical properties of fumifungin). To be noted: solvents in which soluble.
The subject of the next data set is Candida albicans. As to the kind of experiment: MIC of fumifungin, growth inhibition of Candida albicans. In kind it is cell-based.
The next data set deals with Wild yeast. As to the kind of experiment: MIC of fumifungin, growth inhibition of Wild yeast. In kind it is cell-based.
Another data set has as its system Alternaria solani. The experiment in a line: MIC of fumifungin, growth inhibition of Alternaria solani. In kind it is cell-based.
Another data set has as its system fungi. The experiment in a line: fungicidal properties. In kind it is cell-based.
The next data set has as its system Cladosporium resinae. The experiment in a line: MIC of fumifungin, growth inhibition of Cladosporium resinae. To be noted: Amorphotheca resinae. In kind it is cell-based.
A further data set has as its system bacteria. The experiment in a line: bactericidal properties. In kind it is cell-based.
A further data set deals with Saccharomyces cerevisiae. As to the kind of experiment: MIC of fumifungin, growth inhibition of Saccharomyces cerevisiae. In kind it is cell-based.
The next data set has as its system Cercospora beticola. As to the kind of experiment: MIC of fumifungin, growth inhibition of Cercospora beticola. In kind it is cell-based.

Take `CCCCCCC(O)CCCCCCC=CC(O)C(OC(C)=O)C(O)C(N)C(=O)O` (stereo not shown) [fumifungin, 2-amino-4-acetoxy-3,5,14-tri-hydroxy-Δ^6-eicosenoic acid]: the MIC is over 7.8 mg/mL with Aspergillus niger; 62.5 mg/mL with Candida albicans; 62.5 mg/mL with Wild yeast; 31.2 mg/mL in the data set on Alternaria solani; over 0.9 mg/mL in the data set with Cladosporium resinae; 62.5 mg/mL in the data set on Saccharomyces cerevisiae. Further, in the data set with Cercospora beticola, the MIC was found to be 0.9 mg/mL. Further, the Solubility entry in [1] is “methanol, DMSO”. For the same compound, the fungicidal properties entry in the data set on fungi was “fungicidal”. In addition, the bactericidal properties result with bacteria is recorded as “bactericidal”.
